Measured values taken from publication PMC4604124, “In Vitro Characterization of the Pharmacological Properties of the Anti-Cancer Chelator, Bp4eT, and Its Phase I Metabolites” (PLoS ONE, 2015).
Values joined by “and” are separate entries in the source; they are usually repeats but may differ in a detail not shown here. Identical values can stand only once. Like-named read-outs stand apart in the source and are kept apart here.

Legend:
H9c2 cardiomyoblasts = experiment: MTT cytotoxicity assay, H9c2 cells; format: cell-based, rat; settings: for IC50: MTT
Experimental: For cytotoxicity experiments, cancer cells were seeded at a density of 5,000 (MCF-7), 10,000 (HL-60) or 2,000 cells/well (HCT116 and A549) in 96-well plates (TPP) for 24 h/37°C prior to the addition of examined agents. The non-cancerous cells, 3T3 and H9c2 cells, were cultured for 24 h/37°C in 96-well plates at a density of 10,000 cells/well, the medium was then changed to serum- and pyruvate-free DMEM (Sigma-Aldrich) and incubated with the cells for another 24 h/37°C. The cytotoxic effects of Bp4eT and its metabolites were studied at different concentrations after a 72 h/37°C incubation. In order to aid the dissolution of the lipophilic ligands, 0.1% dimethyl sulfoxide (v/v) (DMSO; Sigma-Aldrich) was present in the culture medium of all groups. At this concentration, DMSO had no effect on cellular proliferation or viability.
The viability of cells were determined using an MTT assay (Sigma-Aldrich) according to previously established methods. The optical density of soluble MTT was measured at λ = 570 nm, subtracting the λ = 690 nm background using a Tecan Infinite 200M plate reader (Tecan Group, Männedorf, Switzerland). The viability or proliferation of experimental groups was expressed as a percentage of the untreated controls (100%).
SigmaStat for Windows 3.5 (Systat Software, San Jose, CA, USA) statistical software package was utilized to analyze results. The data are expressed as the mean ± SD of a given number of experiments. Statistical significance was determined using a one-way ANOVA with a Bonferroni post-hoc test or Student’s t-test. The results were considered to be statistically significant when p < 0.05. The IC50 values were calculated using CalcuSyn 2.0 software (Biosoft, Cambridge, UK). Cell cycle analysis was evaluated using MultiCycle AV Software (Phoenix Flow Systems, San Diego, CA, USA).

[1] = tested on: 3T3 mouse embryo fibroblasts; experiment: MTT cytotoxicity assay, 3T3 cells; format: cell-based; settings: for IC50: MTT
Summary of the method: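 3T3 fibroblast viability was measured with an MTT assay, reading optical density at λ = 570 nm with λ = 690 nm background subtracted on a Tecan Infinite 200M. Results were expressed as a percentage of untreated controls (100%) and reported as mean ± SD. IC50 values came from CalcuSyn 2.0 after a 72 h/37°C incubation.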

caspases 3/7 = experiment: Caspase activity, luminescent kit, caspases 3/7; format: cell-based, human; settings: for kaspáza (3) a 7, raw signal / kaspáza (3) a 7, signal / viabilita: individual experiments by date; for kaspáza (3) a 7, raw signal, průměry / kaspáza (3) a 7, % kontroly / kaspáza (3) a 7, signal / viabilita, průměry: mean; for kaspáza (3) a 7, % kontroly / kaspáza (3) a 7, signal / viabilita / kaspáza (3) a 7, signal / viabilita, průměry: normalised to viability
Experimental: To assess the effect of the compounds on caspase activity, MCF-7 cells were incubated with 100 nM Bp4eT or its metabolites for 3, 24 or 72 h/37°C in 96-well plates, as described above. The cells were then lysed by adding 100 μL of cold lysis buffer (100 mM HEPES, 10 mM CHAPS, 10 mM D-L-dithiothreitol, pH 7.4) to 100 μL of medium in each well. Lysates were immediately frozen at -80°C. Thawed lysates were used to assess caspase activity using luminescent kits for caspases 3/7, 8 and 9 (Promega, Madison, WI, USA). The luminescence was measured using the Tecan Infinite 200M plate reader. Caspase activity in the experimental groups was corrected according to the cellular viability of each group and expressed as a percentage of activity of the untreated control (100%).

## CCN=CNN=C(c1ccccc1)c1ccccn1 [Bp4eA, N ^3-ethyl-N ^1-[phenyl(pyridin-2-yl)methylene]formamidrazone]
H9c2 cardiomyoblasts; H9c2, 10 000 b/j, 30 μM, průměr (mean), sheet Bp4eA
  MTT, relative to control (0 = 100): 93.18
H9c2 cardiomyoblasts; H9c2, 10 000 b/j, 30 μM, single experiment (date), sheet Bp4eA
  MTT, relative to control (0 = 100): 94.6024 and 93.1446 and 95.1622 and 88.8218 and 94.1801
H9c2 cardiomyoblasts; H9c2, 10 000 b/j, 100 μM, průměr (mean), sheet Bp4eA
  MTT, relative to control (0 = 100): 76.55
H9c2 cardiomyoblasts; H9c2, 10 000 b/j, 100 μM, single experiment (date), sheet Bp4eA
  MTT, relative to control (0 = 100): 76.7908 and 72.9908 and 82.9441 and 73.781 and 76.2525
H9c2 cardiomyoblasts; H9c2, 10 000 b/j, 300 μM, průměr (mean), sheet Bp4eA
  MTT, relative to control (0 = 100): 66.55
H9c2 cardiomyoblasts; H9c2, 10 000 b/j, 300 μM, single experiment (date), sheet Bp4eA
  MTT, relative to control (0 = 100): 71.4763 and 63.147 and 62.7404 and 68.8465
H9c2 cardiomyoblasts; H9c2, 10 000 b/j, 1000 μM, průměr (mean), sheet Bp4eA
  MTT, relative to control (0 = 100): 23.16
H9c2 cardiomyoblasts; H9c2, 10 000 b/j, 1000 μM, single experiment (date), sheet Bp4eA
  MTT, relative to control (0 = 100): 17.0741 and 23.4615 and 18.1134 and 33.9931
H9c2 cardiomyoblasts; H9c2, 10 000 b/j, single experiment (date), sheet Bp4eA, read-out: IC50 měřené
  IC50: 510 µM and 315 µM and 533 µM
H9c2 cardiomyoblasts; Rattus norvegicus, H9c2, 72 h, H9c2, 72 h/37°C, mean ± SD, n ≥ 4, read-out: IC50
  IC50: 416 ± 122 µM
H9c2 cardiomyoblasts; Rattus norvegicus, H9c2, H9c2, 10 000 b/j, průměr (mean), sheet Bp4eA, read-out: IC50 měřené
  IC50: 416 µM
H9c2 cardiomyoblasts; Rattus norvegicus, H9c2, H9c2, 10 000 b/j, single experiment (date), sheet Bp4eA, read-out: IC50 měřené
  IC50: 306 µM
[1]; 3T3, 10 000 b/j, individual experiments, read-out: IC50
  IC50: 1.01 mM and 1.15 mM
[1]; 3T3, 10 000 b/j, koncentrace 1 μM, individual experiments
  MTT viability (0 = 100): 95.1233 and 93.3461 and 101.857
[1]; 3T3, 10 000 b/j, koncentrace 3 μM, individual experiments
  MTT viability (0 = 100): 92.5164 and 97.328 and 96.9903
[1]; 3T3, 10 000 b/j, koncentrace 10 μM, individual experiments
  MTT viability (0 = 100): 86.2678 and 91.552 and 97.4344
[1]; 3T3, 10 000 b/j, koncentrace 30 μM, individual experiments
  MTT viability (0 = 100): 90.9815 and 83.2122 and 96.551
[1]; 3T3, 10 000 b/j, koncentrace 100 μM, individual experiments
  MTT viability (0 = 100): 87.8661 and 89.8957 and 82.8198
[1]; 3T3, 10 000 b/j, koncentrace 300 μM, individual experiments
  MTT viability (0 = 100): 76.7642 and 78.9793 and 76.2498
[1]; 3T3, 10 000 b/j, koncentrace 1000 μM, individual experiments
  MTT viability (0 = 100): 48.7008 and 53.1589 and 49.6824
[1]; Mus musculus, Fibroblast, 3T3, 10 000 b/j, individual experiments, read-out: IC50
  IC50: 0.748 mM
[1]; Mus musculus, Fibroblast, 3T3, 10 000 b/j, mean, read-out: IC50, průměr
  IC50: 1.03 mM
[1]; Mus musculus, Fibroblast, 72 h, 3T3, 72 h/37°C, mean ± SD, n ≥ 4, read-out: IC50
  IC50: 1.03 ± 0.204 mM
Caspases 3/7; 3 hodiny
  kaspáza (3) a 7, raw signal: 1911.5 and 1519 and 1669 and 1490
  kaspáza (3) a 7, raw signal, průměry: 1647.38
  kaspáza (3) a 7, % kontroly: 103.19 % kontroly
  kaspáza (3) a 7, signal / viabilita: 19.7461 and 15.6915 and 17.241 and 15.3919
  kaspáza (3) a 7, signal / viabilita, průměry: 17.0176
Caspases 3/7; 24 hodin
  kaspáza (3) a 7, raw signal: 2415 and 2091.5 and 2337 and 2002.5
  kaspáza (3) a 7, raw signal, průměry: 2211.5
  kaspáza (3) a 7, % kontroly: 101.36 % kontroly
  kaspáza (3) a 7, signal / viabilita: 25.2632 and 21.8791 and 24.4473 and 20.9481
  kaspáza (3) a 7, signal / viabilita, průměry: 23.1344
Caspases 3/7; 72 hodin
  kaspáza (3) a 7, raw signal: 7143 and 7295 and 7483 and 8002
  kaspáza (3) a 7, raw signal, průměry: 7480.75
  kaspáza (3) a 7, % kontroly: 108.88 % kontroly
  kaspáza (3) a 7, signal / viabilita: 76.7734 and 78.4071 and 80.4278 and 86.006
  kaspáza (3) a 7, signal / viabilita, průměry: 80.4036
